Experiments:
[1] = Inhibition of Influenza A virus A/duck/china/1206/2012(H5N1) Neuraminidase
[2] = Inhibition of Influenza A virus A/chicken/shandong/S2/02(H9N2) Neuraminidase
[3] = Inhibition of Influenza A virus A/duck/china/QJ/01(H5N1) Neuraminidase

**Q.** With CCC(CC)O[C@@H]1C=C(C(=O)O)C[C@H](NCc2ccc(-c3ccccc3)cc2Cl)[C@H]1NC(C)=O as the molecule, how does the IC50 [1] read?
**A.** 27 nM

**Q.** What about the IC50 [2] of the same molecule?
**A.** 340 nM

**Q.** What about the IC50 [3] of the same molecule?
**A.** 44 nM

**Q.** Which IC50 [1] does the source give for CCC(CC)O[C@@H]1C=C(C(=O)O)C[C@H](N(Cc2ccc(C(C)C)cc2)C(=N)N)[C@H]1NC(C)=O here?
**A.** 1560 nM

**Q.** What about the IC50 [2] of the same molecule?
**A.** 2160 nM

**Q.** And the IC50 [3]?
**A.** 3200 nM

**Q.** For CCC(CC)O[C@@H]1C=C(C(=O)O)C[C@H](N(Cc2ccccc2)C(=N)N)[C@H]1NC(C)=O, which IC50 [1] is on record?
**A.** 3020 nM

**Q.** And the IC50 [3]?
**A.** > 3000 nM

**Q.** With CCC(CC)O[C@@H]1C=C(C(=O)O)C[C@H](NCc2ccc(-c3cccs3)cc2)[C@H]1NC(C)=O as the molecule, how does the IC50 [1] read?
**A.** 4.3 nM

**Q.** What about the IC50 [2] of the same molecule?
**A.** 210 nM

**Q.** What about the IC50 [3] of the same molecule?
**A.** 14 nM

**Q.** With CCC(CC)O[C@@H]1C=C(C(=O)O)C[C@H](NC/C=C/c2ccccc2)[C@H]1NC(C)=O as the molecule, how does the IC50 [1] read?
**A.** 48 nM

**Q.** What about the IC50 [2] of the same molecule?
**A.** 3230 nM

**Q.** And the IC50 [3]?
**A.** 106 nM

**Q.** For CCC(CC)CN[C@H]1CC(C(=O)O)=C[C@@H](OC(CC)CC)[C@@H]1NC(C)=O, which IC50 [1] is on record?
**A.** 43 nM

**Q.** And the IC50 [2]?
**A.** 70 nM

**Q.** What about the IC50 [3] of the same molecule?
**A.** 540 nM

**Q.** With CCC(CC)O[C@@H]1C=C(C(=O)O)C[C@H](NCc2ccccc2)[C@H]1NC(C)=O as the molecule, how does the IC50 [1] read?
**A.** 19 nM

**Q.** What about the IC50 [2] of the same molecule?
**A.** 420 nM

**Q.** And the IC50 [3]?
**A.** 80 nM

**Q.** For CCC(CC)O[C@@H]1C=C(C(=O)O)C[C@H](NC(=N)N)[C@H]1NC(C)=O [Guanidino-Oseltamivir Carboxylicacid], which IC50 [1] is on record?
**A.** 2.3 nM

**Q.** What about the IC50 [2] of the same molecule?
**A.** 11 nM

**Q.** And the IC50 [3]?
**A.** 2.6 nM

**Q.** What does the source list for CCC(CC)O[C@@H]1C=C(C(=O)O)C[C@H](N(CCCc2ccccc2)C(=N)N)[C@H]1NC(C)=O?
**A.** IC50 [1]: 1780 nM; IC50 [2]: > 5000 nM; IC50 [3]: > 3000 nM

**Q.** With CCC(CC)O[C@@H]1C=C(C(=O)O)C[C@H](NCc2ccc(-c3ccccc3)cc2)[C@H]1NC(C)=O as the molecule, how does the IC50 [1] read?
**A.** 3.8 nM

**Q.** And the IC50 [2]?
**A.** 580 nM

**Q.** What about the IC50 [3] of the same molecule?
**A.** 6.7 nM

**Q.** What does the source list for CCC(CC)O[C@@H]1C=C(C(=O)O)C[C@H](NCc2ccccc2OCc2ccco2)[C@H]1NC(C)=O?
**A.** IC50 [1]: > 200 nM; IC50 [2]: 720 nM; IC50 [3]: > 200 nM

**Q.** Which IC50 [1] does the source give for CCC(CC)O[C@@H]1C=C(C(=O)O)C[C@H](NCC(C)C)[C@H]1NC(C)=O here?
**A.** 83 nM

**Q.** And the IC50 [2]?
**A.** 1750 nM

**Q.** What about the IC50 [3] of the same molecule?
**A.** 99 nM

**Q.** Which results are given for CCC(CC)O[C@@H]1C=C(C(=O)NO)C[C@H](NC(=N)N)[C@H]1NC(C)=O?
**A.** IC50 [1]: > 200 nM; IC50 [2]: 160 nM; IC50 [3]: > 200 nM

**Q.** For CCC(CC)O[C@@H]1C=C(C(=O)O)C[C@H](N(Cc2ccc(-c3ccccc3)cc2)C(=N)N)[C@H]1NC(C)=O, which IC50 [1] is on record?
**A.** 270 nM

**Q.** What about the IC50 [2] of the same molecule?
**A.** 370 nM

**Q.** What about the IC50 [3] of the same molecule?
**A.** 430 nM

**Q.** For CCCCN(C(=N)N)[C@H]1CC(C(=O)O)=C[C@@H](OC(CC)CC)[C@@H]1NC(C)=O, which IC50 [1] is on record?
**A.** > 3000 nM

**Q.** What about the IC50 [2] of the same molecule?
**A.** > 1230 nM

**Q.** What about the IC50 [3] of the same molecule?
**A.** > 3000 nM

**Q.** Which IC50 [1] does the source give for CCC(CC)O[C@@H]1C=C(C(=O)O)C[C@H](NCCCN)[C@H]1NC(C)=O here?
**A.** > 200 nM

**Q.** And the IC50 [2]?
**A.** 1050 nM

**Q.** What about the IC50 [3] of the same molecule?
**A.** > 200 nM

**Q.** Which IC50 [1] does the source give for CCCCCN(C(=N)N)[C@H]1CC(C(=O)O)=C[C@@H](OC(CC)CC)[C@@H]1NC(C)=O here?
**A.** 3620 nM

**Q.** What about the IC50 [2] of the same molecule?
**A.** > 5000 nM

**Q.** And the IC50 [3]?
**A.** > 3000 nM

**Q.** What does the source list for CCC(CC)O[C@@H]1C=C(C(=O)O)C[C@H](NCc2ccc(-c3ccccc3)cc2-c2ccccc2)[C@H]1NC(C)=O?
**A.** IC50 [1]: 39 nM; IC50 [2]: 38 nM; IC50 [3]: 58 nM

**Q.** Which IC50 [1] does the source give for CCCCN[C@H]1CC(C(=O)O)=C[C@@H](OC(CC)CC)[C@@H]1NC(C)=O here?
**A.** 56 nM

**Q.** What about the IC50 [2] of the same molecule?
**A.** 630 nM

**Q.** And the IC50 [3]?
**A.** 76 nM

**Q.** What does the source list for C=CCOc1ccccc1CN[C@H]1CC(C(=O)O)=C[C@@H](OC(CC)CC)[C@@H]1NC(C)=O?
**A.** IC50 [1]: > 200 nM; IC50 [2]: 1910 nM; IC50 [3]: > 200 nM

**Q.** With CCC(CC)O[C@@H]1C=C(C(=O)O)C[C@H](NCc2ccccc2Br)[C@H]1NC(C)=O as the molecule, how does the IC50 [1] read?
**A.** 38 nM

**Q.** What about the IC50 [2] of the same molecule?
**A.** 42 nM

**Q.** And the IC50 [3]?
**A.** 56 nM

**Q.** Which IC50 [1] does the source give for CCC(CC)O[C@@H]1C=C(C(=O)O)C[C@H](N(Cc2cccs2)C(=N)N)[C@H]1NC(C)=O here?
**A.** 88 nM

**Q.** And the IC50 [2]?
**A.** 350 nM

**Q.** What about the IC50 [3] of the same molecule?
**A.** 190 nM

**Q.** What does the source list for CCC(CC)O[C@@H]1C=C(C(=O)NO)C[C@H](N)[C@H]1NC(C)=O?
**A.** IC50 [1]: > 200 nM; IC50 [2]: 120 nM; IC50 [3]: 180 nM

**Q.** For CCC(CC)O[C@@H]1C=C(C(=O)O)C[C@H](NCc2cccs2)[C@H]1NC(C)=O, which IC50 [1] is on record?
**A.** 53 nM

**Q.** What about the IC50 [2] of the same molecule?
**A.** 99 nM

**Q.** And the IC50 [3]?
**A.** 54 nM

**Q.** With CCC(CC)O[C@@H]1C=C(C(=O)O)C[C@H](NCc2ccccc2F)[C@H]1NC(C)=O as the molecule, how does the IC50 [1] read?
**A.** 90 nM

**Q.** And the IC50 [2]?
**A.** 650 nM

**Q.** What about the IC50 [3] of the same molecule?
**A.** 108 nM

**Q.** For CCC(CC)O[C@@H]1C=C(C(=O)O)C[C@H](NCc2ccccc2O)[C@H]1NC(C)=O, which IC50 [1] is on record?
**A.** 63 nM

**Q.** And the IC50 [2]?
**A.** 5000 nM

**Q.** What about the IC50 [3] of the same molecule?
**A.** 194 nM

**Q.** With CCC(CC)O[C@@H]1C=C(C(=O)O)C[C@H](NCc2ccccc2Cl)[C@H]1NC(C)=O as the molecule, how does the IC50 [1] read?
**A.** 14 nM

**Q.** And the IC50 [2]?
**A.** > 430 nM

**Q.** What about the IC50 [3] of the same molecule?
**A.** 29 nM

**Q.** With CCC(CC)O[C@@H]1C=C(C(=O)O)C[C@H](N(CC(C)C)C(=N)N)[C@H]1NC(C)=O as the molecule, how does the IC50 [1] read?
**A.** 390 nM

**Q.** And the IC50 [2]?
**A.** > 5000 nM

**Q.** What about the IC50 [3] of the same molecule?
**A.** 450 nM

**Q.** With CCC(CC)CN(C(=N)N)[C@H]1CC(C(=O)O)=C[C@@H](OC(CC)CC)[C@@H]1NC(C)=O as the molecule, how does the IC50 [1] read?
**A.** > 3000 nM

**Q.** What about the IC50 [2] of the same molecule?
**A.** > 5000 nM

**Q.** What about the IC50 [3] of the same molecule?
**A.** > 3000 nM

**Q.** Which results are given for CCC(CC)O[C@@H]1C=C(C(=O)O)C[C@H](NCc2ccccc2OC)[C@H]1NC(C)=O?
**A.** IC50 [1]: 117 nM; IC50 [2]: 250 nM; IC50 [3]: > 2000 nM

**Q.** What does the source list for CCC(CC)O[C@@H]1C=C(C(=O)O)C[C@H](N(CCC(C)C)C(=N)N)[C@H]1NC(C)=O?
**A.** IC50 [1]: 2540 nM; IC50 [2]: 4880 nM; IC50 [3]: > 3000 nM

**Q.** With CCC(CC)O[C@@H]1C=C(C(=O)O)C[C@H](N(Cc2ccccc2OC)C(=N)N)[C@H]1NC(C)=O as the molecule, how does the IC50 [1] read?
**A.** 250 nM

**Q.** What about the IC50 [2] of the same molecule?
**A.** 360 nM

**Q.** Which IC50 [1] does the source give for CCCN(C(=N)N)[C@H]1CC(C(=O)O)=C[C@@H](OC(CC)CC)[C@@H]1NC(C)=O here?
**A.** 1140 nM

**Q.** What about the IC50 [2] of the same molecule?
**A.** > 5000 nM

**Q.** And the IC50 [3]?
**A.** 3900 nM

**Q.** Which results are given for CCC(CC)O[C@@H]1C=C(C(=O)O)C[C@H](NCCCc2ccccc2)[C@H]1NC(C)=O?
**A.** IC50 [1]: 81 nM; IC50 [2]: > 5000 nM; IC50 [3]: 190 nM

Reference: BindingDB's records for doi:10.1021/jm500892k (Shandong University, 2014)
